Non-standard residues stand in square brackets, D forms with d. Residues, ends and D or L forms follow the SMILES beside them. Aoc = NCCCCCCCC(=O)O; Ahx = NCCCCCC(=O)O; NEtG = CCNCC(=O)O; Sar = CNCC(=O)O
Experiments:
[1] = molecular target: thrombin-stimulated platelets (Homo sapiens, UniProt P05106+P08514); assay: Fibrinogen-Binding Assay (125I-fibrinogen binding to platelets); conditions: 125I-fibrinogen 0.176 μmol/liter, thrombin-stimulated platelets; read-out: Inhibition of 125I-Fibrinogen Binding to Platelets IC50
Chain of thrombin-stimulated platelets (P08514 32-1039): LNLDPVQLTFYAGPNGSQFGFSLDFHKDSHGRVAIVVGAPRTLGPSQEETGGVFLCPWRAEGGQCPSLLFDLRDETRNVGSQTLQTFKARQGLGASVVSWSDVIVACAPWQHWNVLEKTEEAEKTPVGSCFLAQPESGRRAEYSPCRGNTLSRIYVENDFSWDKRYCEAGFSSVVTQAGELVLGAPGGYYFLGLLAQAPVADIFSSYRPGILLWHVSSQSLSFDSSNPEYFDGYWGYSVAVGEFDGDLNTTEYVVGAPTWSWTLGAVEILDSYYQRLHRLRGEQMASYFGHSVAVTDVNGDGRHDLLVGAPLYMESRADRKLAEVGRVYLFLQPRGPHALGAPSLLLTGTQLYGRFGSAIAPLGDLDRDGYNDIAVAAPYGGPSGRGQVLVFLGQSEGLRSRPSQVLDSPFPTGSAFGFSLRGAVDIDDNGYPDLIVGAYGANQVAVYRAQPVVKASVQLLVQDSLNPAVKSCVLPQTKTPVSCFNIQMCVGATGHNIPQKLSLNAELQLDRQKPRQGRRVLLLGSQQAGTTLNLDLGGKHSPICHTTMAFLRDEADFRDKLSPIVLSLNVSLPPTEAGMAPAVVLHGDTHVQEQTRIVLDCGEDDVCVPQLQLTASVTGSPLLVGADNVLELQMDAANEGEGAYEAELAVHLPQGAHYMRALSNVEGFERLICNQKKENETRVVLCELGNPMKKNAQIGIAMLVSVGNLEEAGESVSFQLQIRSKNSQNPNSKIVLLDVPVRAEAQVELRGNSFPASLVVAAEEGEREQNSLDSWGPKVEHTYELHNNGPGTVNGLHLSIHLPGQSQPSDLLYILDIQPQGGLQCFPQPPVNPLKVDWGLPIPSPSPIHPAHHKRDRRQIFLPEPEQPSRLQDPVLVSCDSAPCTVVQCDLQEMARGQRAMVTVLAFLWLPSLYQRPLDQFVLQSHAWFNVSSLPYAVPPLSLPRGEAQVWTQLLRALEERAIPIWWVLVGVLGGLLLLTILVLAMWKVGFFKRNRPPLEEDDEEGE
Chain of thrombin-stimulated platelets (P05106 27-788): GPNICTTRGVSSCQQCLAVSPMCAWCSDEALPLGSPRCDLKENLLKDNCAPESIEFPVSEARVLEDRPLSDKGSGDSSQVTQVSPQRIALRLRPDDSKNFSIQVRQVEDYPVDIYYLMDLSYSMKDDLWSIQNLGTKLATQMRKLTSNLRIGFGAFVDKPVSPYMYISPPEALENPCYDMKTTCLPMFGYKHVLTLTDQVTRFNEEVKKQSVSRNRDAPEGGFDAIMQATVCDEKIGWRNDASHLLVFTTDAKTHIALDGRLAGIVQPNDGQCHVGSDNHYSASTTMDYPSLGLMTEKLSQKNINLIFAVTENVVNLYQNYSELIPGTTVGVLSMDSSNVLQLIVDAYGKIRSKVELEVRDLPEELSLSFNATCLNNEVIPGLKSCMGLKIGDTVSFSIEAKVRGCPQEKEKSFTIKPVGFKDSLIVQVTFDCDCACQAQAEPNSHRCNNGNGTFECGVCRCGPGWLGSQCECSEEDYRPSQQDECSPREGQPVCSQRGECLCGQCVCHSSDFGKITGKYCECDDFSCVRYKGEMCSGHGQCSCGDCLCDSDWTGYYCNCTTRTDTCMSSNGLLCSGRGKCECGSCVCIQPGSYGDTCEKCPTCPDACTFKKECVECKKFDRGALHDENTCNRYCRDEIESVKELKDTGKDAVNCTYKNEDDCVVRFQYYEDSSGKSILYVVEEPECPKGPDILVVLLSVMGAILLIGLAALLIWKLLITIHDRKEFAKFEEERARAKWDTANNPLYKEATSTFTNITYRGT
Experimental: Platelets are washed free of plasma constituents by the albumin density-gradient technique of Walsh, P. N., et al., Br. J. Haematol. […] After these additions, the final platelet count in the mixture is 1×10^11 /liter. After incubation for an additional 30 minutes at 22°-25° C., bound and free ligand are separated by centrifuging 50 μl of the mixture through 300 μl of 20% sucrose at 12,000×g for 4 minutes. The platelet pellet is then separated from the rest of the mixture to determine platelet-bound radioactivity. Nonspecific binding is measured in mixtures containing an excess of unlabeled ligand. […] The IC50 is derived by plotting residual fibrinogen binding against the logarithm of the sample compound's concentration.

[2] = molecular target: fixed activated platelets (Homo sapiens, UniProt P05106+P08514); assay: Platelet Aggregation Assay (fibrinogen-mediated aggregation of fixed-activated platelets); type: cell-based; conditions: for IC50: fixed activated platelets, human fibrinogen 250 μg/ml, read-out: Inhibition of Fibrinogen Mediated Platelet Aggregation IC50; for inhibition at 25 µM: read-out: Inhibition of Fibrinogen Mediated Platelet Aggregation % inhibition at 25 μM
Chain of fixed activated platelets (P08514 32-1039): as the sequence (P08514 32-1039) above
Chain of fixed activated platelets (P05106 27-788): as the sequence (P05106 27-788) above
Experimental: PLATELET AGGREGATION ASSAY
Preparation of Fixed-Activated Platelets
To the activated platelets is added paraformaldehyde to a final concentration of 0.50% and this incubated at room temperature for 30 minutes. The fixed activated platelets are then collected by centrifugation at 650×g for 15 minutes.
Platelet Aggregation Assay
The fixed activated platelets are incubated with a selected dose of the compound to be tested for platelet aggregation inhibition for one minute and aggregation initiated by addition of human fibrinogen to a final concentration of 250 μg/ml. A platelet aggregation profiler Model PAP-4 is used to record the platelet aggregation.

IC50 [1] [µM] | IC50 [2] [µM] | inhibition at 25 µM [2] [%] | SMILES
0.39 | 0.54 | 90 | CCN(CC(=O)N[C@@H](CC(=O)O)C(=O)N[C@@H](CC(C)C)C(=O)O)C(=O)CCCCNC(=N)N [5-guanidinopentanoyl-N-(ethyl)-glycyl-L-aspartyl-L-leucine]
0.313 | 4.9 | 89 | CCc1nccn1CCCCCC(=O)N(C)CC(=O)N[C@@H](CC(=O)O)C(=O)N[C@H](C(=O)O)C(C)C [6-(2-Ethylimidazol-1-yl)hexanoyl-sarcosyl-L-aspartyl-L-valine]
0.35 | 1.9 | 93 | CCN(CC(=O)N[C@@H](CC(=O)O)C(=O)N[C@H](C(=O)O)C(C)C)C(=O)CCCCCn1ccnc1C [6-(2-Methylimidazol-1-yl)hexanoyl-N-(ethyl)-glycyl-L-aspartyl-L-valine]
0.38 | 5.6 | 84 | CC(C)[C@H](NC(=O)[C@H](CC(=O)O)NC(=O)CN(C)C(=O)CCCCCn1ccnc1-c1ccccc1)C(=O)O [6-(2-Phenylimidazol-1-yl)hexanoyl-sarcosyl-L-aspartyl-L-valine]
0.9 | 1 | 95 | CCN(CC(=O)N[C@@H](CC(=O)O)C(=O)N[C@H](C(=O)O)C(C)C)C(=O)CCCCCn1ccnc1 [6-(Imidazol-1-yl)-hexanoyl-N-ethylglycyl-L-aspartyl-L-valine]
2.8 | 17 | 67 | CC(C)[C@H](NC(=O)[C@H](CC(=O)O)NC(=O)CNC(=O)CCCCCn1ccnc1)C(=O)O [6-(Imidazol-1-yl)-hexanoyl-glycyl-L-aspartyl L-valine]
4 | 4.1 | 92 | CCN(CC(=O)N[C@@H](CC(=O)O)C(=O)N[C@H](C(=O)O)C(C)C)C(=O)CCCCCN [6-Aminohexanoyl-N-ethylglycyl-L-aspartyl-L-valine] (H-[Ahx][NEtG]DV-OH)
0.09 | 0.33 | 88 | CC(C)C[C@H](NC(=O)[C@H](CC(=O)O)NC(=O)CN(C)C(=O)CCCCCNC(=N)N)C(=O)O [6-Guanidinohexanoyl-L-sarcosyl-L-aspartyl-L-leucine]
0.32 | 0.63 | 97 | CC(C)[C@H](NC(=O)[C@H](CC(=O)O)NC(=O)CN(C)C(=O)CCCCCNC(=N)N)C(=O)O [6-Guanidinohexanoyl-L-sarcosyl-L-aspartyl-L-valine]
> 200 | 10.5 | 86 | CCCC(C)CN(CC(=O)N[C@@H](CC(=O)O)C(=O)N[C@H](C(=O)O)C(C)C)C(=O)CCCCCNC(=N)N (stereo partly drawn) [6-Guanidinohexanoyl-N-(2-methylpentyl)glycine-L-aspartic acid-L-valine]
1.1 | 8.6 | 83 | CC(C)[C@H](NC(=O)[C@H](CC(=O)O)NC(=O)CN(C(=O)CCCCCNC(=N)N)C(C)C)C(=O)O [6-Guanidinohexanoyl-N-(2-propyl)glycyl-L-aspartyl-L-valine]
0.13 | 1.3 | 91 | CCN(CC(=O)N[C@@H](CC(=O)O)C(=O)N[C@@H](Cc1c[nH]c2ccccc12)C(=O)O)C(=O)CCCCCNC(=N)N [6-Guanidinohexanoyl-N-(ethyl)glycyl-L-aspartyl-L-tryptophan]
0.18 | 1.25 | 95 | CCN(CC(=O)N[C@@H](CC(=O)O)C(=O)N[C@@H](Cc1ccc(O)cc1)C(=O)O)C(=O)CCCCCNC(=N)N [6-Guanidinohexanoyl-N-(ethyl)glycyl-L-aspartyl-L-tyrosine]
0.84 | 5.7 | 85 | CC(C)[C@H](NC(=O)[C@H](CC(=O)O)NC(=O)CN(Cc1ccccc1)C(=O)CCCCCNC(=N)N)C(=O)O [6-Guanidinohexanoyl-N-benzylglycyl-L-aspartyl-L-valine]
0.88 | 5.7 | 76 | CC(C)[C@H](NC(=O)[C@H](CC(=O)O)NC(=O)CN(C(=O)CCCCCNC(=N)N)C1CCCC1)C(=O)O [6-Guanidinohexanoyl-N-cyclopentylglycine-L-aspartyl-L-valine]
5 | 11.4 | 73 | CCN(CC(=O)N[C@@H](CC(=O)O)C(=O)NC(CC)(CC)C(=O)O)C(=O)CCCCCNC(=N)N [6-Guanidinohexanoyl-N-ethyl-glycyl-L-aspartyl-2,2-diethylglycine]
0.12 | 0.38 | 96 | CCN(CC(=O)N[C@@H](CC(=O)O)C(=O)N[C@H](C(=O)O)C(C)C)C(=O)CCCCCNC(=N)N [6-Guanidinohexanoyl-N-ethylglycine-L-aspartyl-L-valine]

IC50 [1] [µM] | IC50 [2] [µM] | inhibition at 25 µM [2] [%] | SMILES
0.24 | 1.4 | 97 | CCN(CC(=O)N[C@@H](CC(=O)O)C(=O)N[C@@H](CCCNC(=N)N)C(=O)O)C(=O)CCCCCNC(=N)N [6-Guanidinohexanoyl-N-ethylglycyl-L-aspartyl-L-arginine]
0.05 | 0.56 | 96 | CC[C@H](C)[C@H](NC(=O)[C@H](CC(=O)O)NC(=O)CN(CC)C(=O)CCCCCNC(=N)N)C(=O)O [6-Guanidinohexanoyl-N-ethylglycyl-L-aspartyl-L-isoleucine]
0.2 | 1.3 | 97 | CCN(CC(=O)N[C@@H](CC(=O)O)C(=O)N[C@@H](Cc1ccccc1)C(=O)O)C(=O)CCCCCNC(=N)N [6-Guanidinohexanoyl-N-ethylglycyl-L-aspartyl-L-phenylalanine]
0.1 | 1.5 | 86 | CC(C)CN(CC(=O)N[C@@H](CC(=O)O)C(=O)N[C@H](C(=O)O)C(C)C)C(=O)CCCCCNC(=N)N [6-Guanidinohexanoyl-N-isobutylglycyl-L-aspartyl-L-valine]
1.4 | 6.5 | 90 | CC(C)[C@H](NC(=O)[C@H](CC(=O)O)NC(=O)CNC(=O)CCCCCNC(=N)N)C(=O)O [6-Guanidinohexanoyl-glycyl-L-aspartyl-L-valine]
0.52 | 2.1 | 97 | CN(CC(=O)N[C@@H](CC(=O)O)C(=O)N[C@@H](CCCNC(=N)N)C(=O)O)C(=O)CCCCCNC(=N)N [6-Guanidinohexanoyl-sarcosyl-L-aspartyl-L-arginine]
0.34 | 4.1 | 86 | CN(CC(=O)N[C@@H](CC(=O)O)C(=O)N[C@@H](CCCCN)C(=O)O)C(=O)CCCCCNC(=N)N [6-Guanidinohexanoyl-sarcosyl-L-aspartyl-L-lysine]
0.19 | 6.6 | 89 | CN(CC(=O)N[C@@H](CC(=O)O)C(=O)N[C@@H](Cc1c[nH]c2ccccc12)C(=O)O)C(=O)CCCCCNC(=N)N [6-Guanidinohexanoyl-sarcosyl-L-aspartyl-L-tryptophan]
3.6 | 7.3 | 94 | CN(CC(=O)N[C@@H](CC(=O)O)C(=O)N[C@@H](Cc1ccc(O)cc1)C(=O)O)C(=O)CCCCCNC(=N)N [6-Guanidinohexanoyl-sarcosyl-L-aspartyl-L-tyrosine]
5.4 | 0.56 | 95.5 | CCN(CC(=O)N[C@@H](CC(=O)O)C(=O)N[C@@H](CC(C)C)C(=O)O)C(=O)CCCCCNC(=N)N [6-guanidinohexanoyl-N-ethyl-glycyl-L-aspartyl-L-leucine]
2 | > 25 | 35 | CC(C)[C@H](NC(=O)[C@H](CC(=O)O)NC(=O)CCCCCCn1ccnc1)C(=O)O [7-(Imidazol-1-yl)heptanoyl-L-aspartyl-L-valine]
1.3 | 10.8 | 82 | CCN(CC(=O)N[C@@H](CC(=O)O)C(=O)N[C@H](C(=O)O)C(C)C)C(=O)CCCCCCn1ccnc1 [7-(Imidazol-1-yl)heptanoyl-N-(ethyl)glycyl-L-aspartyl-L-valine]
5.1 | – | 14 | CC(C)[C@H](NC(=O)[C@H](CC(=O)O)NC(=O)CN(C)C(=O)CCCCCCNC(=N)N)C(=O)O [7-Guanidinoheptanoyl-L-sarcosyl-L-aspartyl-L-valine]
6.4 | 21 | 56 | CC(C)[C@H](NC(=O)[C@H](CC(=O)O)NC(=O)CNC(=O)CCCCCCNC(=N)N)C(=O)O [7-Guanidinoheptanoyl-glycyl-L-aspartyl-L-valine]
0.86 | 11.6 | 78 | CC(C)[C@H](NC(=O)[C@H](CC(=O)O)NC(=O)CCCCCCCn1ccnc1)C(=O)O [8-(Imidazol-1-yl)-octanoyl-L-aspartyl-L-valine]
0.23 | 2.6 | 96 | CC(C)[C@H](NC(=O)[C@H](CC(=O)O)NC(=O)CN(C)C(=O)CCCCCCCN)C(=O)O [8-Aminooctanoyl-sarcosyl-L-aspartyl-L-valine] (H-[Aoc][Sar]DV-OH)
